The test system of this experiment is αSMA. Kind of experiment: TGFβ-induced αSMA+ stress fiber formation in fibroblasts. Format: cell-based, human. To be noted: TGFβ 72 hours, DHX from 48-72 hours. How it is done:
Media was then exchanged for the indicated conditions for each experiment. Cells were fixed in 3.7% formalin (Sigma-Aldrich), permeabilized in 0.25% Triton X-100 (Sigma-Aldrich) and then blocked with 1% BSA for 1 h. Cells or tissue sections were incubated overnight with mouse monoclonal antibody against αSMA (Sigma-Aldrich F3777), and/or a rabbit monoclonal antibody against YAP/TAZ (Cell Signaling D24E4) diluted 1:200 in PBS with 1% BSA. Cells were then washed and exposed to flourescence-conjugated secondary antibodies (Invitrogen) diluted 1:1000 and DAPI (Thermo Fisher Scientific). Images were taken with a Cytation5 (BioTek) microscope. For scoring αSMA positive cells (FIG. 12), an observer blinded to the treatment conditions counted αSMA-positive cells using a visual threshold for bright fibrous staining; a minimum of 200 cells was counted for each condition. YAP/TAZ localization was quantified (FIGS. 6-10, 24-26, and 29-30) using Gen5 (Biotek) software. Images were taken at 4× magnification of both DAPI and YAP/TAZ staining. […] Quantification of double positive (YAP/TAZ and αSMA) cells from lung tissue sections (FIG. 17-21) was performed similarly; however separate thresholds were established for both YAP/TAZ and αSMA. A minimum of 4000 cells was quantified for each mouse.

This is an account of results in patent publication US12264163B2, “Compounds and methods for treating fibrotic pathologies” (Mayo Foundation for Medical Education and Research, priority 2019, dated 2025).

For `Oc1cc2c(cc1O)[C@H]1c3ccccc3CN[C@@H]1CC2` (racemic) [Dihydrexidine], the “TGFβ-induced myofibroblastic transition (αSMA+ stress fibers)” value is reported as “reversed this transition”.
